In the supplement of paper PMC10307832:

Tests used:
Test in all cases: relative viability (nuclei count vs DMSO), 5 days (fraction); higher = more cells survive
RO-3306 + Palbociclib = compound: C1=CC2=C(C=CC(=C2)C=C3C(=O)NC(=NCC4=CC=CS4)S3)N=C1 [RO-3306] + CC(=O)c1c(C)c2cnc(Nc3ccc(N4CCNCC4)cn3)nc2n(C2CCCC2)c1=O [Palbociclib] (partner 0.5 µM)
How it was run: (§1)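 Lung cancer cell lines in 1536-well plates got either a single drug or a fixed anchor-drug dose together with five library-drug doses (not always all listed) in √10 steps, by pin tool, on the day after seeding. Nuclei were counted after 5 days, and relative viability is the treated-to-vehicle ratio of nuclei counts. Values are medians of duplicate plates.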

RO-3306 + Tozasertib = compound: C1=CC2=C(C=CC(=C2)C=C3C(=O)NC(=NCC4=CC=CS4)S3)N=C1 [RO-3306] + Cc1cc(Nc2cc(N3CCN(C)CC3)nc(Sc3ccc(NC(=O)C4CC4)cc3)n2)n[nH]1 [Tozasertib] (partner 0.1 µM)
How it was run: as §1

[1] = compound: O=S(=O)(c1ccccc1)N(CC(F)(F)F)c1ccc(C(O)(C(F)(F)F)C(F)(F)F)cc1 + C[C@@H](Oc1cc(-c2cnn(C3CCNCC3)c2)cnc1N)c1c(Cl)ccc(F)c1Cl [Crizotinib] (partner 1 µM)
How it was run: as §1

[2] = compound: O=S(=O)(c1ccccc1)N(CC(F)(F)F)c1ccc(C(O)(C(F)(F)F)C(F)(F)F)cc1 + N=C(N)NC(=N)NCCc1ccccc1 [Phenformin] (partner 250 µM)
How it was run: as §1

[3] = compound: O=S(=O)(c1ccccc1)N(CC(F)(F)F)c1ccc(C(O)(C(F)(F)F)C(F)(F)F)cc1 + O=C(c1cc(Cc2n[nH]c(=O)c3ccccc23)ccc1F)N1CCN(C(=O)C2CC2)CC1 [Olaparib] (partner 8 µM)
How it was run: as §1

Cell Line | relative viability (RO-3306 + Palbociclib; first compound 0.01 µM) | relative viability (RO-3306 + Palbociclib; first compound 0.03162 µM) | relative viability (RO-3306 + Palbociclib; first compound 0.1 µM) | relative viability (RO-3306 + Palbociclib; first compound 0.3162 µM) | relative viability (RO-3306 + Palbociclib; first compound 1 µM) | relative viability (RO-3306 + Tozasertib; first compound 0.01 µM) | relative viability (RO-3306 + Tozasertib; first compound 0.03162 µM) | relative viability (RO-3306 + Tozasertib; first compound 0.1 µM) | relative viability (RO-3306 + Tozasertib; first compound 0.3162 µM) | relative viability (RO-3306 + Tozasertib; first compound 1 µM) | relative viability ([1]; first compound 0.8 µM) | relative viability ([1]; first compound 2.53 µM) | relative viability ([1]; first compound 8 µM) | relative viability ([2]; first compound 0.8 µM) | relative viability ([2]; first compound 2.53 µM) | relative viability ([2]; first compound 8 µM) | relative viability ([3]; first compound 0.8 µM) | relative viability ([3]; first compound 2.53 µM) | relative viability ([3]; first compound 8 µM)
A-427 | 0.502 | 0.513 | 0.545 | 0.57 | 0.516 | 0.173 | 0.181 | 0.166 | 0.173 | 0.235 | 0.929 | 0.793 | 0.872 | 0.286 | 0.254 | 0.326 | 0.807 | 0.673 | 0.778
NCI-H2170 | 0.416 | 0.398 | 0.372 | 0.433 | 0.378 | 0.689 | 0.933 | 0.663 | 0.804 | 0.679 | 1.25 | 1.19 | 1.21 | 0.379 | 0.348 | 0.344 | 0.666 | 0.563 | 0.609
NCI-H441 | 0.197 | 0.179 | 0.182 | 0.204 | 0.157 | 0.587 | 0.527 | 0.604 | 0.538 | 0.481 | 0.992 | 0.869 | 0.717 | 1.16 | 0.905 | 0.813 | 0.657 | 0.469 | 0.654
NCI-H2347 | 0.475 | 0.438 | 0.397 | 0.387 | 0.417 | 0.616 | 0.616 | 0.628 | 0.525 | 0.514 | 0.873 | 0.658 | 0.751 | 0.462 | 0.38 | 0.342 | 0.566 | 0.522 | 0.572
NCI-H2009 | 0.216 | 0.203 | 0.18 | 0.25 | 0.203 | 0.816 | 0.707 | 0.722 | 0.671 | 0.707 | 0.981 | 0.888 | 0.824 | 0.47 | 0.439 | 0.419 | 0.663 | 0.685 | 0.648
NCI-H1915 | 0.54 | 0.523 | 0.518 | 0.539 | 0.538 | 0.498 | 0.406 | 0.416 | 0.394 | 0.427 | 0.958 | 0.894 | 0.834 | 0.373 | 0.309 | 0.408 | 0.266 | 0.263 | 0.269
EMC-BAC-2 | 0.501 | 0.461 | 0.514 | 0.516 | 0.494 | 0.394 | 0.306 | 0.295 | 0.263 | 0.254 | 0.844 | 0.731 | 0.577 | 0.701 | 0.493 | 0.557 | 0.471 | 0.47 | 0.483
Calu-6 | – | – | – | – | – | – | – | – | – | – | 0.7 | 0.668 | 0.649 | – | – | – | 0.562 | 0.58 | 0.571
NCI-H2126 | 0.326 | 0.363 | 0.369 | 0.346 | 0.373 | 0.867 | 0.841 | 0.781 | 0.749 | 0.75 | 1.08 | 1.02 | 1.03 | 0.578 | 0.533 | 0.518 | 0.999 | 0.878 | 0.803
NCI-H596 | – | – | – | – | – | 0.837 | 0.712 | 0.771 | 0.834 | 0.794 | 0.921 | 0.947 | 0.926 | 0.805 | 0.717 | 0.667 | 0.634 | 0.681 | 0.651
SW 900 | 0.61 | 0.505 | 0.539 | 0.542 | 0.51 | 0.659 | 0.474 | 0.444 | 0.438 | 0.329 | – | – | – | 0.649 | 0.34 | 0.437 | 0.838 | 0.901 | 0.706
NCI-H2342 | 0.515 | 0.512 | 0.494 | 0.498 | 0.527 | 0.54 | 0.537 | 0.492 | 0.47 | 0.506 | – | – | – | 0.606 | 0.599 | 0.48 | 0.475 | 0.504 | 0.429
NCI-H1793 | 0.222 | – | 0.279 | 0.296 | 0.388 | 0.313 | 0.344 | 0.338 | 0.283 | 0.291 | – | – | – | 0.447 | 0.332 | 0.285 | 0.791 | 0.574 | 0.692
NCI-H1648 | 0.277 | – | 0.284 | 0.246 | 0.224 | 0.406 | – | 0.558 | 0.362 | 0.478 | – | – | – | – | – | – | 0.835 | 0.542 | 0.602
NCI-H522 | 1.2 | 0.965 | 1.01 | 1.02 | 1.04 | 0.545 | 0.495 | 0.595 | 0.567 | 0.5 | – | – | – | 0.721 | 0.736 | 0.727 | 0.597 | 0.614 | 0.714
EBC-1 | – | – | – | – | – | – | – | – | – | – | 0.234 | 0.29 | 0.293 | – | – | – | 0.692 | 0.584 | 0.597
NCI-H1623 | – | – | – | – | – | 0.45 | 0.409 | 0.442 | 0.446 | 0.391 | – | – | – | 0.6 | 0.559 | 0.57 | – | – | –
NCI-H1792 | 0.688 | – | 0.653 | 0.708 | 0.698 | – | – | – | – | – | 0.843 | 0.75 | 0.818 | 0.305 | 0.267 | 0.204 | 0.402 | 0.274 | 0.189
A549 | – | – | – | – | – | – | – | – | – | – | 0.884 | 0.74 | 0.703 | 0.17 | 0.159 | 0.186 | 0.299 | 0.278 | 0.204
NCI-H1703 | – | – | – | – | – | – | – | – | – | – | 0.676 | 0.701 | 0.588 | – | – | – | 0.53 | 0.387 | 0.446
IA-LM | – | – | – | – | – | – | – | – | – | – | 0.863 | 0.652 | 0.906 | – | – | – | 0.94 | 0.651 | 0.681
NCI-H1395 | 0.696 | 0.678 | 0.58 | 0.641 | 0.558 | 0.635 | 0.681 | 0.749 | 0.696 | 0.643 | – | – | – | 0.438 | 0.465 | 0.482 | 0.409 | 0.458 | 0.467
NCI-H1563 | – | – | – | – | – | – | – | – | – | – | 0.873 | 0.742 | 0.733 | 0.676 | 0.637 | 0.675 | – | – | –
